Molecules are shown by their SMILES. Structures can show the parent of a compound that is named as a salt.

Six compounds from EP0790989B1, “CERTAIN SUBSTITUTED BENZYLAMINE DERIVATIVES; A NEW CLASS OF NEUROPEPTIDE Y1 SPECIFIC LIGANDS” (PFIZER INC., priority 1994, dated 1996) can be followed below.

The experiment concerns the target T1, human NPY1 receptors (Homo sapiens, UniProt P25929).
T1 construct: SK-N-MC cells were purchased from ATCC (Rockville, MD); host or cells: SK-N-MC cells (human neuroepithelioma line), intact confluent monolayers
T1 sequence (P25929 1-384): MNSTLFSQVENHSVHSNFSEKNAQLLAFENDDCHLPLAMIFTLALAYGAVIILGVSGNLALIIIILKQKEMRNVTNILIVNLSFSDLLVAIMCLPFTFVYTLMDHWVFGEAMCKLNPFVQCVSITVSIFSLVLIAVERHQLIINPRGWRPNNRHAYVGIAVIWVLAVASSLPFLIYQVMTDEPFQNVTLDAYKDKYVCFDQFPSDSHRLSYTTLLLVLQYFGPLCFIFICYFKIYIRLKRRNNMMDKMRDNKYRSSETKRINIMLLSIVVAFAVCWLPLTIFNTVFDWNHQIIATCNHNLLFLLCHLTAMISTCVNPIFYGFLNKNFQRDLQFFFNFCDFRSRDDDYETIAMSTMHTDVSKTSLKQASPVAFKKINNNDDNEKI
Nature of the experiment: Assay for Human NPY1 receptor binding activity ([125I]PYY binding to SK-N-MC cells). Conditions: IC50, [125I]PYY (~50 pM) binding to confluent SK-N-MC cells, 3 hour incubation at room temperature. The procedure:
The procedure used is similar to that described by Gordon et al. (J. Neurochem. 55:506-513, 1990). SK-N-MC cells were purchased from ATCC (Rockville, MD). Cells were maintained at 37°C and 5% CO2 in Dulbecco's modified essential media (DMEM) with L-glutamine and 110 mg/L sodium pyruvate, which was supplemented with 10% fetal bovine serum and 25 mM HEPES (pH 7.3). The binding assay was performed in 24-well plates (Falcon) when the cells were confluent. Taking care to not disturb the cells on the bottom of the wells, the media was aspirated, and 0.5 ml of Dulbecco's phosphate buffered saline (DPBS) with calcium and magnesium were added to each well. The DPBS was aspirated and an additional aliquot of DPBS was added and aspirated. To begin the assay, binding buffer consisting of serum-free DMEM containing 0.5% bovine serum albumin, 0.1% bacitracin and 0.1 mM phenylmethylsulfonylfluoride was added to each well. The cells and the binding buffer preincubated for 30 minutes at room temperature, at which point the drug dilution and [^125I]PYY (NEN-DuPont: 50000 -75000 cpm ∼ 50 pM) were added to yield a final volume of 250 ul. Nonspecific binding was defined with […] NPY (porcine or human, Bachem California). After a 3 hour incubation at room temperature, the plates were then put on ice and the wells were aspirated. The cells were washed 4-6 times with 0.5 ml of ice-cold DPBS. A dilute solution of Triton X-100 (1%) was then added to each well. After approximately 1 hour at room temperature, an aliquot from each well was transferred to a 12x75 mm testtube, and the amount of [^125I] was quantitated on a gamma counter with an efficiency of 80-85% (Genesys 5000, Laboratory Technologies). IC50 values were calculated with the non-linear curve fitting program RS/1 (BBN Software Products Corp., Cambridge, MA).
The IC50 is the concentration that gives 50% inhibition. A high value points to weaker potency. As to `CCOc1cccc(C2(N3CCN(c4ccccc4)CC3)CCCCC2)c1` [Compound 9, 1-(3-Ethoxyphenyl)-1-(4-phenylpiperazin-1-yl)-cyclohexane dihydrochloride], the IC50 was 0.137 µM.

As to `COc1cccc(C2(N3CCN(c4ccccc4)CC3)CCC(C)CC2)c1` (stereo not drawn) [Compound 13, 1-(3-Methoxyphenyl)-1-(4-phenylpiperazin-1-yl)-4-methyl-cyclohexane dihydrochloride], the IC50 came out at 0.067 µM.

`CCOc1cccc(C2(N3CCN(c4ccccc4)CC3)CCC(C)CC2)c1` (stereo not drawn) [Compound 18, 1-(3-Ethoxyphenyl)-1-(4-phenylpiperazin-1-yl)-4-methyl-cyclohexane dihydrochloride] displayed an IC50 of 0.075 µM.

Regarding `CCOc1cccc(C2(N3CCN(c4ccccc4)CC3)CCC(CC)CC2)c1` (stereo not drawn) [Compound 20, 1-(3-Ethoxyphenyl)-1-(4-phenylpiperazin-1-yl)-4-ethyl-cyclohexane dihydrochloride], the IC50 amounted to 0.076 µM.

Regarding `CCOc1cccc(C2(N3CCN(c4ccccc4)CC3)CCC(CC)CC2)c1` (stereo not drawn) [Compound 21, 1-(3-Ethoxyphenyl)-1-(4-phenylpiperazin-1-yl)-4-ethyl-cyclohexane dihydrochloride], the IC50 was determined as 0.525 µM.

`COCOc1cccc(C2(N3CCN(c4ccccc4)CC3)CCC(C)CC2)c1` (stereo not drawn) [Compound 29, 1-(3-Methoxymethoxyphenyl)-1-(4-phenylpiperazin-1-yl)-4-methyl-cyclohexane dihydrochloride] returned a half-inhibitory concentration (IC50) of 0.039 µM.
